Experimental data as given in patent EP4782450A1, “NOVEL SKELETAL DERIVATIVE EFFECTIVE FOR HER2 MUTATION, AND PHARMACEUTICAL COMPOSITION COMPRISING SAME” (Hanmi Pharm. Co., Ltd., priority 2023, dated 2025).

Tests used:
[1] = test system: wild-type EGFR overexpressing Ba/F3 cells; assay: Growth inhibition of Ba/F3 cells engineered to overexpress wild-type EGFR (CellTiter-Glo luminescence); assay type: cell-based; conditions: Mus musculus, BaF3, 72 hours, concentrations 10000 to 8 nM, read-out: Ba/F3 EGFR^WT GI50 class
Protocol: (§1) Experimental Example: Growth inhibition of Ba/F3 HER2 A775insYVMA and wild-type Ba/F3 cells
(§2) In this Experimental Example, the compounds obtained in Examples 1 to 92 were evaluated for their ability to inhibit growth of cells harboring either the HER2 A775insYVMA mutation or wild-type EGFR. For this purpose, Ba/F3 cells (ATCC, USA) were genetically engineered to overexpress either HER2 A775_G776insYVMA or wild-type EGFR, and the growth of these engineered Ba/F3 cells were monitored in the presence of the compounds described in the Examples to evaluate their effects on growth inhibition.
(§3) Specifically, culture flasks of the engineered Ba/F3 cells suspended in RPMI 1640 medium supplemented with 10% fetal bovine serum (FBS) and 1% penicillin/streptomycin (Gibco BRL, USA) were placed in a cell incubator and incubated at 37°C and 5% CO2 level to allow them to reach a stable logarithmic growth phase. The cells were then harvested by centrifugation to remove the old media and placed into a 96-well plate by dividing them into 100 µL aliquots per well at a dilution of 1×10^5 cells/mL in fresh media. Each of the compounds prepared in the preceding Examples were dissolved in 99.5% (cell culture grade) dimethylsulfoxide (DMSO) to prepare a stock solution of 10 mM concentration, which were serially diluted in the culture medium to final concentrations of 1000, 200, 40, 8, 1.6 and 0.32 nM for HER2 A775insYVMA Ba/F3 cells and concentrations of 10000, 5000, 1000, 200, 40 and 8 nM for wild-type EGFR overexpressing Ba/F3 cells.
(§4) To each aliquot of cells in the 96-well plate, a 50 µL test solution comprising one of the compounds was added to result in each well a 150 µL volume of cells with a compound in a final concentration ranging from 10 µM to 0.32 nM. The Ba/F3 cells treated with the test solution were incubated for 72 hours at 37°C and 5% CO2 level and underwent a 30-minute acclimation by placing the 96-well plate carrying the cells in ambient temperature. Thereafter, to each well was added 50 µL CellTiter-Glo® Luminescent Cell Assay Reagent (CTG, Promega, USA). After allowing 10 minutes to stabilize the signal, luminescence intensity was measured using a microplate reader. The half-maximal growth inhibition concentration (GI50) was calculated from the luminescence readout of the test compounds with the difference between the initial and final cell densities for the well untreated with a compound set at 100% growth. Nonlinear regression analysis based on log[inhibitor] vs. normalized response mode of the Graph Prism software was used for calculating GI50 for each compound, which are summarized in Table 6. The calculated GI50 values are classified in Table 6 into four categories: A for GI50 values less than 100 nM, B for GI50 values more than 100 nM but less than 1,000 nM, C for GI50 values more than 1,000 nM but less than 5,000 nM, and D for GI50 values of more than 5,000 nM.

Ba/F3 HER2 A775insYVMA = assay: Growth inhibition of Ba/F3 cells engineered to overexpress HER2 A775_G776insYVMA (CellTiter-Glo luminescence); assay type: cell-based; conditions: Mus musculus, BaF3, 72 hours, concentrations 1000 to 0.32 nM, read-out: Ba/F3 HER2^YVMA GI50 class
Protocol: as §1, §2, §3, §4

Compound | GI50 [1] [µM] | GI50 (Ba/F3 HER2 A775insYVMA) [µM]
C=CC(=O)N(C)CCOc1ccc2ncnc(Nc3ccc(Oc4ccn5ncnc5c4)c(C)c3)c2c1 [Example 1, N-(2-((4-((4-([1,2,4]triazolo[1,5-a]pyridin-7-yloxy)-3-methylphenyl)amino)quinazolin-6-yl)oxy)ethyl)-N-methylacrylamide] | 0.1 to 1 | < 0.1
C=CC(=O)N(C)CCOc1cc2c(Nc3ccc(Oc4ccn5ncnc5c4)c(C)c3)ncnc2cc1OC [Example 2, N-(2-((4-((4-([1,2,4]triazolo[1,5-a]pyridin-7-yloxy)-3-methylphenyl)amino)-7-methoxyquinazolin-6-yl)oxy)ethyl)-N-methylacrylamide] | 0.1 to 1 | < 0.1
C=CC(=O)N(C)CCOc1ccc2ncnc(Nc3ccc(Oc4ccn5ncnc5c4)c(C)c3)c2n1 [Example 3, N-(2-((4-((4-([1,2,4]triazolo[1,5-a]pyridin-7-yloxy)-3-methylphenyl)amino)pyrido[3,2-d]pyrimidin-6-yl)oxy)ethyl)-N-methylacrylamide] | 0.1 to 1 | < 0.1
C=CC(=O)N(C)CCOc1ccc2ncnc(Nc3ccc(Oc4ccc5c(c4)ncn5C)c(C)c3)c2c1 [Example 5, N-methyl-N-(2-((4-((3-methyl-4-((1-methyl-1H-benzo[d]imidazol-5-yl)oxy)phenyl)amino)quinazolin-6-yl)oxy)ethyl)acrylamide] | > 5 | < 0.1
C=CC(=O)N(C)CCOc1ccc2ncnc(Nc3ccc(Oc4ccc5c(c4)ncn5C)c(C)c3)c2n1 [Example 6, N-methyl-N-(2-((4-((3-methyl-4-((1-methyl-1H-benzo[d]imidazol-5-yl)oxy)phenyl)amino)pyrido[3,2-d]pyrimidin-6-yl)oxy)ethyl)acrylamide] | > 5 | < 0.1
C=CC(=O)NCCOc1ccc2ncnc(Nc3ccc(Oc4ccc5c(c4)ncn5C)c(C)c3)c2n1 [Example 7, N-(2-((4-((3-methyl-4-((1-methyl-1H-benzo[d]imidazol-5-yl)oxy)phenyl)amino)pyrido[3,2-d]pyrimidin-6-yl)oxy)ethyl)acrylamide] | > 5 | 0.1 to 1
C=CC(=O)N(C)CCOc1ncc2ncnc(Nc3ccc(Oc4ccc5c(c4)ncn5C)c(C)c3)c2n1 [Example 8, N-methyl-N-(2-((8-((3-methyl-4-((1-methyl-1H-benzo[d]imidazol-5-yl)oxy)phenyl)amino)pyrimido[5,4-d]pyrimidin-2-yl)oxy)ethyl)acrylamide] | 1 to 5 | 0.1 to 1
C=CC(=O)N(C)CCCOc1ccc2ncnc(Nc3ccc(Oc4ccc5c(c4)ncn5C)c(C)c3)c2n1 [Example 9, N-methyl-N-(3-((4-((3-methyl-4-((1-methyl-1H-benzo[d]imidazol-5-yl)oxy)phenyl)amino)pyrido[3,2-d]pyrimidin-6-yl)oxy)propyl)acrylamide] | > 5 | 0.1 to 1
C=CC(=O)NCCOc1ccc2ncnc(Nc3ccc(Oc4ccc5c(c4)ncn5C)c(C)c3)c2c1 [Example 10, N-(2-((4-((3-methyl-4-((1-methyl-1H-benzo[d]imidazol-5-yl)oxy)phenyl)amino)quinazolin-6-yl)oxy)ethyl)acrylamide] | 1 to 5 | < 0.1
C=CC(=O)N(C)CCNc1ncc2ncnc(Nc3ccc(Oc4ccn5ncnc5c4)c(C)c3)c2n1 [Example 12, N-(2-((8-((4-([1,2,4]triazolo[1,5-a]pyridin-7-yloxy)-3-methylphenyl)amino)pyrimido[5,4-d]pyrimidin-2-yl)amino)ethyl)-N-methylacrylamide] | 1 to 5 | 1 to 5
C=CC(=O)N(C)CCN(C)c1ccc2ncnc(Nc3ccc(Oc4ccn5ncnc5c4)c(C)c3)c2n1 [Example 13, N-(2-((4-((4-([1,2,4]triazolo[1,5-a]pyridin-7-yloxy)-3-methylphenyl)amino)pyrido[3,2-d]pyrimidin-6-yl)(methyl)amino)ethyl)-N-methylacrylamide] | 1 to 5 | 0.1 to 1
C=CC(=O)N(C)CCN(C)c1ncc2ncnc(Nc3ccc(Oc4ccn5ncnc5c4)c(C)c3)c2n1 [Example 14, N-(2-((8-((4-([1,2,4]triazolo[1,5-a]pyridin-7-yloxy)-3-methylphenyl)amino)pyrimido[5,4-d]pyrimidin-2-yl)(methyl)amino)ethyl)-N-methylacrylamide] | 1 to 5 | 1 to 5
C=CC(=O)N(C)CCNc1ccc2ncnc(Nc3ccc(Oc4ccc5c(c4)ncn5C)c(C)c3)c2n1 [Example 15, N-methyl-N-(2-((4-((3-methyl-4-((1-methyl-1H-benzo[d]imidazol-5-yl)oxy)phenyl)amino)pyrido[3,2-d]pyrimidin-6-yl)amino)ethyl)acrylamide] | 1 to 5 | < 0.1
C=CC(=O)N(C)CCCNc1ccc2ncnc(Nc3ccc(Oc4ccc5c(c4)ncn5C)c(C)c3)c2n1 [Example 17, N-methyl-N-(3-((4-((3-methyl-4-((1-methyl-1H-benzo[d]imidazol-5-yl)oxy)phenyl)amino)pyrido[3,2-d]pyrimidin-6-yl)amino)propyl)acrylamide] | > 5 | < 0.1
C=CC(=O)N(C)CCN(C)c1ccc2ncnc(Nc3ccc(Oc4ccc5c(c4)ncn5C)c(C)c3)c2n1 [Example 18, N-methyl-N-(2-(methyl(4-((3-methyl-4-((1-methyl-1H-benzo[d]imidazol-5-yl)oxy)phenyl)amino)pyrido[3,2-d]pyrimidin-6-yl)amino)ethyl)acrylamide] | > 5 | 0.1 to 1
C=CC(=O)N(C)CCN(C)c1ncc2ncnc(Nc3ccc(Oc4ccc5c(c4)ncn5C)c(C)c3)c2n1 [Example 19, N-methyl-N-(2-(methyl(8-((3-methyl-4-((1-methyl-1H-benzo[d]imidazol-5-yl)oxy)phenyl)amino)pyrimido[5,4-d]pyrimidin-2-yl)amino)ethyl)acrylamide] | > 5 | 0.1 to 1
C=CC(=O)N(C)CCCN(C)c1ccc2ncnc(Nc3ccc(Oc4ccc5c(c4)ncn5C)c(C)c3)c2n1 [Example 20, N-methyl-N-(3-(methyl(4-((3-methyl-4-((1-methyl-1H-benzo[d]imidazol-5-yl)oxy)phenyl)amino)pyrido[3,2-d]pyrimidin-6-yl)amino)propyl)acrylamide] | > 5 | 0.1 to 1
C=CC(=O)N(C)CC(=O)Nc1ccc2ncnc(Nc3ccc(Oc4ccc5c(c4)ncn5C)c(C)c3)c2n1 [Example 21, N-methyl-N-(2-((4-((3-methyl-4-((1-methyl-1H-benzo[d]imidazol-5-yl)oxy)phenyl)amino)pyrido[3,2-d]pyrimidin-6-yl)amino)-2-oxoethyl)acrylamide] | 1 to 5 | 0.1 to 1
C=CC(=O)N(C)C/C=C/c1ccc2ncnc(Nc3ccc(Oc4ccc5c(c4)ncn5C)c(C)c3)c2c1 [Example 22] | 1 to 5 | < 0.1
C=CC(=O)N(C)C/C=C/c1ccc2ncnc(Nc3ccc(Oc4ccc5c(c4)ncn5C)c(C)c3)c2n1 [Example 23, (E)-N-methyl-N-(3-(4-((3-methyl-4-((1-methyl-1H-benzo[d]imidazol-5-yl)oxy)phenyl)amino)pyrido[3,2-d]pyrimidin-6-yl)aryl)acrylamide] | > 5 | < 0.1
